The values that follow are results of earlier work, collected in patent publication US8722114B2, “Compositions and methods for increasing human growth hormone levels” (Quality IP Holdings, LLC, priority 2012, dated 2014).

The conditions of data set [1]: subcutaneous injection of 0.06 IU, GH deficient subjects.

As for “HGH: human growth hormone, injected subcutaneously in a cited study”, the “Mean levels of GH reached” value in data set [1] is 0.4 ng/mL.
Regarding `N=C(N)NCCC[C@H](N)C(=O)O` [arginine], the “Elevation of serum hGH levels” value in the data set on hGH (30 g, intravenous, in males) is given as 8.6 fold. Further, the “Increase of hGH levels” value in the data set on hGH (intravenous infusion of 183 mg/kg body weight in females) is listed as over 20 fold.
